Assay results as given in article PMC11467779, “New anti-ovarian cancer quinolone derivatives acting by modulating microRNA processing machinery” (RSC Medicinal Chemistry, 2024).

How the values were obtained:
[1] = Cytotoxicity against non-tumor Wi-38 cells (CC50, cell count); format: cell-based; conditions: human, Wi-38 cells (non-tumor), 50% cytotoxicity concentration, 72 hours of treatment
Method: SKOV-3, A2780 and A2780 CIS were cultured and maintained, as previously described,[50] at 37 °C in RPMI 1640 medium (Euroclone) supplemented with 10% fetal bovine serum (FBS; Euroclone), L-glutamine and penicillin/streptomycin (SIGMA-ALDRICH). OVCA433, HEK-293T, HeLa, HCCLM3, SK-Hep-1, MCF-7, A549 and HCT-116 cells were maintained in DMEM medium (Euroclone) containing 10% FBS (Euroclone), L-glutamine and penicillin/streptomycin (SIGMA-ALDRICH). Wi-38 cells were cultured in DMEM medium (Euroclone) supplemented with 10% FBS (Euroclone), L-glutamine and penicillin/streptomycin (SIGMA-ALDRICH), and 1% non-essential amino acids (NEAA; Euroclone). The cultures were maintained in a constant temperature incubator at 37 °C with 5% CO2. […] Once cell adhesion had been promoted, the compounds were added to the culture medium. After 72 hours of treatment, the cells were counted, and the data analyzed by linear regression. Each experiment was carried out three times in triplicate and three separate cell counts were made for each sample. […] Afterwards, the concentration range was narrowed to the relative value obtained in the first evaluation in order to obtain an accurate value.

[2] = target: T1, TRBP (Homo sapiens, UniProt Q15633); test: Surface plasmon resonance (SPR) assay on TRBP; format: binding; conditions: versus enoxacin
T1 sequence (Q15633 1-366): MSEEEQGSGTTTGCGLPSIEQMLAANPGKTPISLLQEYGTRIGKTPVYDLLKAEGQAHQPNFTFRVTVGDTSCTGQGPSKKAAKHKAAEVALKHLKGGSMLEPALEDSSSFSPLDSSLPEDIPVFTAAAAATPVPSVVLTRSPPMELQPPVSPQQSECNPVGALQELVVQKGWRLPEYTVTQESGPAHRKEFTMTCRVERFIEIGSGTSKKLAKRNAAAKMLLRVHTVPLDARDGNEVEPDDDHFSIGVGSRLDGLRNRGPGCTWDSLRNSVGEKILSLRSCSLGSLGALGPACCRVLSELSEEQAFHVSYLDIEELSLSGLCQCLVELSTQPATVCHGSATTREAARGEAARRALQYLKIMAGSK
Method: Following the manufacturer's instructions, the BIAcore Sensor Chip (CM5) underwent initial activation using a mixture of NHS and EDC. Subsequently, recombinant human TRBP proteins at a concentration of 20 μg mL^−1 (in 10 mM sodium acetate, pH 4.0) were injected over the CM5 chip. After reaching a coupling level of 12 000 RU, a 1 M ethanolamine hydrochloride was injected to block the chip, preventing nonspecific binding. All the compounds were diluted in HBS-EP buffer (10 mM HEPES, pH 7.4, 3 mM EDTA, 150 mM NaCl, and 0.005% surfactant P-20) with 1% DMSO. Samples were injected at a rate of 10 μL min^−1 for 120 seconds, followed by a dissociation phase of 90 seconds. After each cycle, a 50% DMSO solution was used to regenerate the chip surface and restore the sensorgram baseline. Binding analysis was performed using BIA evaluation version 3.2 software, determining the […] (KD).

[3] = target: T2, hTopII (Homo sapiens, UniProt P11388); test: Detection of hTOP2α cleavage complexes (cleavage assay); format: cell-based; conditions: 100 μM
T2 construct: endogenous in cells
T2 sequence (P11388 whole entry): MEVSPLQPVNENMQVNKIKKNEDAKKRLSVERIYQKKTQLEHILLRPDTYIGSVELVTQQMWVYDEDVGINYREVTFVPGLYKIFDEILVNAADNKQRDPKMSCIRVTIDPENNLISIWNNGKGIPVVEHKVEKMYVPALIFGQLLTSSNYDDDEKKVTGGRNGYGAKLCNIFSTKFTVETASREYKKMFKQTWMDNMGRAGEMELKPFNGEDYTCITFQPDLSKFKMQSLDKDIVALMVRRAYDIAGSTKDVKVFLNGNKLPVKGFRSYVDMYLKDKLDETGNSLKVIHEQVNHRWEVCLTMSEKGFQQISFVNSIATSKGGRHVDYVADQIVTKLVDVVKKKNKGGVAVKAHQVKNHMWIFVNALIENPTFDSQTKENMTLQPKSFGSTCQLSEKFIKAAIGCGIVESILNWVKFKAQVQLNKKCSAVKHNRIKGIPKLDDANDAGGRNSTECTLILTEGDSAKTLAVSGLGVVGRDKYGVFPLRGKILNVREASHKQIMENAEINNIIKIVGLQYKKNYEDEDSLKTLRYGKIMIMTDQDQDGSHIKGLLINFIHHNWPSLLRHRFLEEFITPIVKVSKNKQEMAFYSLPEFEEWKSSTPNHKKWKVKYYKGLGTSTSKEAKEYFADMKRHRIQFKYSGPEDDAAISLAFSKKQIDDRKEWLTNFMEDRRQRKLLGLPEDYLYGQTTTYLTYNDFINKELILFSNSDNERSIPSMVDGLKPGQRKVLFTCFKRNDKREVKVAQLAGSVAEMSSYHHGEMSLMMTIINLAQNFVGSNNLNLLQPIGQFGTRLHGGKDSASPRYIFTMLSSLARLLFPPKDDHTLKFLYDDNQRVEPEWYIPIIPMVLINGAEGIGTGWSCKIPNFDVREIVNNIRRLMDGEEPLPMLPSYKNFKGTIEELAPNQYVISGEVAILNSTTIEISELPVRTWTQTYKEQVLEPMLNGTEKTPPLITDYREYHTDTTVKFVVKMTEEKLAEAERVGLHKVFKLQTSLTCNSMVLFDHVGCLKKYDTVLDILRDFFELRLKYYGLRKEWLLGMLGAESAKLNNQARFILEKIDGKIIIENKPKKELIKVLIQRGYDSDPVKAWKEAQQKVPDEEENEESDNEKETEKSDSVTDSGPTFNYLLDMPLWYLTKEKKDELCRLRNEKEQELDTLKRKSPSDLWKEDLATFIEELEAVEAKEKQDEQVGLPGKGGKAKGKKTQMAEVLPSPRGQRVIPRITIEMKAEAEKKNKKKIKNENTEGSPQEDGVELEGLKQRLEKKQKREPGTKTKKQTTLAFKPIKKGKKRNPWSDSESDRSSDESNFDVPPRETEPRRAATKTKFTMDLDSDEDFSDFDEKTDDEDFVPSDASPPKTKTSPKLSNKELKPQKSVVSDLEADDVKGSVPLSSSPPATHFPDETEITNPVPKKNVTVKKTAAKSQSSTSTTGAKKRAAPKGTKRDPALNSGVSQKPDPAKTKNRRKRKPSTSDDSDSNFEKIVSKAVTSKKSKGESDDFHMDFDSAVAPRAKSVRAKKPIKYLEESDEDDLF
Method: After compound treatments, 1 × 10^6 human cells in 35 mm dish per sample were washed with 1× phosphate-buffered saline (PBS) and lysed with 600 μL of DNAzol (Invitrogen), followed by precipitation with 300 μL of 200 proof ethanol. The nucleic acids were collected, washed with 75% ethanol, resuspended in 200 μL of TE buffer, and then heated at 65 °C for 15 min, followed by shearing with sonication (40% output for 10 s pulse and 10 s rest for four times). The samples were centrifuged at 15 000 rpm for 5 min at 4 °C, and the supernatant were collected. 1 μL of each sample was removed for spectrophotometric measurement of absorbance at 260 nm to quantitate DNA content (NanoDrop). 2 μg of each sample was subjected to slot-blot for immunoblotting using anti-hTOP1 antibody (BD Pharmingen, 556597) and anti-hTOP2α antibody (Santa Cruz biotechnology, 365916).[51]

[4] = tested on: miR-21; test: miR-21 expression in HeLa cells (qRT-PCR); format: cell-based, human; conditions: 50 μM, 6 hours
Method: Total RNA was extracted using the Direct-zol RNA MiniPrep kit (Zymo Research) with on-column DNase treatment, according to the manufacturer's instructions. Reverse transcription was carried out with SuperScript VILO cDNA Synthesis Kit (Life Technologies) and the cDNA samples were analyzed by qRT-PCR using PowerUp SYBR Green Master Mix (Thermo Fisher Scientific). For miR-21 expression analysis total RNA was retrotranscribed using miRCURY® LNA® RT Kit (Qiagen) and the cDNA was analyzed by using miRCURY® LNA® miRNA PCR Assay (Qiagen). The oligonucleotides used are the following: GAPDH_FW […]; GAPDH_REV […]; ATP5O_FW […]; ATP5O_REV […]; hsa-miR-21-5p miRCURY LNA miRNA PCR Assay (YP00204230); U6 snRNA (v2) miRCURY LNA miRNA PCR Assay (YP02119464).

[5] = target: T1, TRBP; test: Cellular thermal shift assay of TRBP (HEK-293T lysates, Western blot); format: binding; set-up: endogenous in cells; host or cells: HEK-293T
Method: HEK-293T cells were harvested in PBS supplemented with protease inhibitor cocktail (complete, EDTA-free, Roche). Cell suspensions were freeze-thawed three times in liquid nitrogen and then centrifuged (20 000g) for 10 min at 4 °C. The lysates were diluted at concentration of 2 μg μL^−1 and then treated with DMSO and 50 μM of 33 or with increasing concentration of 33 for 30 min at 37 °C. After this incubation the lysates were divided into equal parts (50 μL) and heated individually at designated temperatures for 3 min. The heated samples were cooled at room temperature for 3 min and centrifuged (20 000g) for 10 min at 4 °C. The supernatants were transferred to new tubes and analyzed by use for western blotting.
Lysates were loaded on 4–12% bis–tris-acrylamide gel (Life Technologies) and transferred to a nitrocellulose membrane. The membrane was blocked in 5% milk and hybridized with α-TRBP (15753-1-AP Proteintech), α-GAPDH (sc-25778, Santa Cruz Biotechnology), α-c-PARP (Bioss Antibodies, BSM-52408R), α-BCLXL (mAb #2764, Cell Signaling Technology) and α-β-actin (A3854, Sigma) antibodies. All the images were captured using the ChemiDocTM Touch Imaging System (Bio-Rad), and the densitometric analyses were performed using the associated Image Lab software (Bio-Rad).

binding affinity for TRBP, fold stronger than enoxacin [2]: approximately 40 fold | trapping/inhibition of hTopII (cleavage assay) [3]: no inhibition or trapping activity | thermal shift of TRBP versus DMSO ([5]; 50 μM, different temperatures): significant thermal shift
Structure (SMILES): O=C(O)c1cn(C2CC2)c2cc(N3CCc4ccccc4C3)c(F)cc2c1=O [Compound 33, 1-Cyclopropyl-7-(3,4-dihydroisoquinolin-2(1H)-yl)-6-fluoro-4-oxo-1,4-dihydroquinoline-3-carboxylic acid]
CC50 at 72 h [1]: 143 ± 42.7 µM | miR-21 level in HeLa cells [4]: Upregulation of miR-21 | concentration dependency of TRBP destabilization ([5]; increasing concentration, 55 °C): destabilization of TRBP in a concentration-dependent manner
